We go through eleven compounds from ChEMBL document CHEMBL1201862, “PubChem BioAssay data set” (2004).

Some test systems named below: EKVX; HL-60; HOP-62; HOP-92; HT-29; KM12; LOX IMVI; MOLT-4; NCI-H226; NCI-H460; RXF 393; SF-295; SF-539; SK-MEL-5; SK-OV-3; SN12C; SNB-75; SW-620; U-251; K562.
What all share (assay): NCI anticancer screen, dose series, 48 h

Molecules are shown by their SMILES.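 All cell lines were grown in 96-well plates and treated with compound for 48 hours. GI50 is the concentration that inhibits growth by half.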 Activity calls are given as the source filed them. Cut-off read from the data, not from the text of the source: active = GI50 up to about 1.1 µM and inactive = higher.

For `COc1ccccc1NC(=O)/C(Cc1nc2ccc([N+](=O)[O-])cc2nc1O)=N\NC(=O)C[N+](C)(C)C`, the GI50 is 78 µM (inactive) in the test with EKVX; 12.3 µM (inactive) in the test on HL-60; > 100 µM (inactive) with HOP-62; > 100 µM (inactive) in the test with HOP-92; 30.5 µM (inactive) with HT-29; 31.8 µM (inactive) in the test with KM12. Moreover, the GI50 was > 100 µM (inactive) in the test on LOX IMVI; 16.1 µM (inactive) in the test with MOLT-4; > 100 µM (inactive) with NCI-H226; 38.1 µM (inactive) in the test with NCI-H460; > 100 µM (inactive) in the test with RXF 393; 55.7 µM (inactive) in the test on SF-295. Besides, the GI50 with SF-539 was 49.5 µM (inactive); in the test with SK-MEL-5 it was 26.4 µM (inactive); in the test with SK-OV-3, > 100 µM (inactive); with SN12C, > 100 µM (inactive); in the test on SNB-75, > 100 µM (inactive); with SW-620, 48 µM (inactive). Further, the GI50 in the test on U-251 is > 100 µM (inactive).

For the compound `N=C(N)NS(=O)(=O)c1ccc(Nc2c3ccccc3nc3c(C(=O)N4CCN(CCO)CC4)ccc(Cl)c23)cc1`, the GI50 in the test with HL-60, with HOP-62, in the test on HOP-92, with HT-29, with K562 and in the test on KM12 was > 100 µM (inactive) throughout. For the same compound, the GI50 in the test with MOLT-4, in the test with NCI-H226, with NCI-H460, in the test on RXF 393, in the test with SF-295 and with SF-539 was > 100 µM (inactive) throughout. In addition, the GI50 in the test with SK-MEL-5, in the test with SK-OV-3, in the test on SN12C, with SNB-75 and with U-251 was > 100 µM (inactive) in each case.

As for `c1nc2nc[nH]c(SSc3[nH]cnc4ncnc3-4)c-2n1`, the GI50 in the test with EKVX is 88.3 µM (inactive); with HL-60 it was 2.14 µM (inactive); with HOP-62, 0.116 µM (active); with HOP-92, < 0.01 µM (active); in the test with HT-29, 1.19 µM (inactive); in the test with K562, < 0.0472 µM (active). Further, the GI50 is 1.06 µM (active) in the test with KM12; < 0.0441 µM (active) in the test with LOX IMVI; 0.476 µM (active) in the test with NCI-H226; 2.65 µM (inactive) in the test on NCI-H460; > 100 µM (inactive) with RXF 393; 0.127 µM (active) in the test on SF-295. Besides, the GI50 was 4.83 µM (inactive) with SK-MEL-5; 12.8 µM (inactive) with SN12C; 0.463 µM (active) with SNB-75; 0.824 µM (active) with SW-620; 5.68 µM (inactive) in the test on U-251.

`NC(=O)NN=C(CS)CS`: the GI50 was 18.8 µM (inactive) in the test with EKVX; 0.41 µM (active) in the test on HL-60; 0.492 µM (active) in the test on HOP-62; 21.9 µM (inactive) with HOP-92; 20.7 µM (inactive) in the test with HT-29; 51.1 µM (inactive) in the test on K562. The GI50 in the test on KM12 is 33.2 µM (inactive); with LOX IMVI it was 15.7 µM (inactive); in the test with MOLT-4, 23.7 µM (inactive); with NCI-H460, 23.7 µM (inactive); in the test on RXF 393 it was 40.2 µM (inactive); in the test with SF-295 it was 23.7 µM (inactive). Also, the GI50 with SF-539 was 21.8 µM (inactive); in the test on SK-MEL-5 it was 17 µM (inactive); in the test with SK-OV-3 it was 89.3 µM (inactive); in the test on SN12C it was 24.2 µM (inactive); with SNB-75, 33 µM (inactive); with SW-620, 28.4 µM (inactive). The GI50 with U-251 was 21.6 µM (inactive).

Turning to `S=C(N/N=C(/c1ccccc1)c1ccccn1)Nc1cccc(Cl)c1`, the GI50 in the test with EKVX was 0.0513 µM (active); in the test with HL-60, < 0.0277 µM (active); in the test with HOP-62 it was 1.27 µM (inactive); in the test on HOP-92 it was 1.93 µM (inactive); in the test with KM12, 0.414 µM (active); in the test on MOLT-4, < 0.0297 µM (active). For the same compound, the GI50 in the test on NCI-H226 was 0.508 µM (active); with NCI-H460, 0.316 µM (active); with RXF 393 it was 1.08 µM (active); in the test on SF-295, 0.422 µM (active); with SF-539, 1.48 µM (inactive); with SK-MEL-5, 0.185 µM (active). Besides, the GI50 is 0.215 µM (active) in the test on SK-OV-3; 0.394 µM (active) in the test with SN12C; 0.0569 µM (active) in the test with SNB-75; < 0.0385 µM (active) with SW-620; 0.169 µM (active) in the test with U-251.

As for `Cc1ccc(C(=O)C2CC3(CCC2(O)c2ccc(C)cc2)CC(=O)Nc2ccccc2C3=O)cc1` (configuration not stated), the GI50 with EKVX is > 100 µM (inactive); in the test with HL-60, 10.5 µM (inactive); in the test on HOP-62, 99.3 µM (inactive); in the test with HOP-92, 19.4 µM (inactive); in the test with HT-29, > 100 µM (inactive); in the test on LOX IMVI it was > 100 µM (inactive). The GI50 was 4.91 µM (inactive) in the test with MOLT-4; > 100 µM (inactive) with NCI-H226; 40 µM (inactive) with NCI-H460; 16.1 µM (inactive) with RXF 393; 28.4 µM (inactive) in the test on SF-295; > 100 µM (inactive) in the test with SF-539. Besides, the GI50 in the test on SK-MEL-5 is 6.89 µM (inactive); in the test with SK-OV-3 it was > 100 µM (inactive); in the test on SN12C, > 100 µM (inactive); in the test on SNB-75, 13.5 µM (inactive); in the test on SW-620, > 100 µM (inactive); with U-251, 8.39 µM (inactive).

Consider `CCN(CC)c1ccc2cc(C(=O)Nc3ccc4[nH]c(C(=O)N5C[C@@H](CCl)c6c5cc(OC(=O)Nc5ccccc5)c5[nH]cc(C)c65)cc4c3)oc2c1` [CARZELESIN], for which the GI50 with EKVX is 0.000266 µM (active); in the test on HL-60, 0.000282 µM (active); in the test with HOP-62, 0.000171 µM (active); in the test on HOP-92, > 1000 µM (inactive); with HT-29 it was > 1000 µM (inactive); with K562 it was 0.000556 µM (active). Also, the GI50 in the test on KM12 is 678 µM (inactive); with LOX IMVI it was 0.000128 µM (active); in the test on MOLT-4, 0.000343 µM (active); in the test with NCI-H460, 9.08e-05 µM (active); in the test on RXF 393, 0.000201 µM (active); in the test on SF-539, 318 µM (inactive). Moreover, the GI50 with SK-MEL-5 was 306 µM (inactive); in the test on SK-OV-3 it was 0.00042 µM (active); in the test on SN12C, 552 µM (inactive); in the test with SNB-75 it was 284 µM (inactive); with SW-620, 0.000321 µM (active).

Consider `Cc1[nH]c(=O)nc(S)c1C(=O)NC1C2CCCCC2NC2CCCCC21` (configuration not stated), for which the GI50 with HL-60 is > 100 µM (inactive); in the test with HOP-62 it was 17.3 µM (inactive); in the test with HOP-92, 18.5 µM (inactive); with HT-29 it was 21.4 µM (inactive); with K562 it was 4.57 µM (inactive); in the test with KM12, 16.1 µM (inactive). Further, the GI50 in the test on LOX IMVI is 27 µM (inactive); in the test on MOLT-4, 14.3 µM (inactive); in the test on NCI-H226, 17.3 µM (inactive); in the test on NCI-H460, 14.4 µM (inactive); with RXF 393, 13.5 µM (inactive); in the test on SF-295, 17.2 µM (inactive). The GI50 in the test on SK-MEL-5 was 18.9 µM (inactive); with SK-OV-3, > 10 µM (inactive); with SN12C it was 19.8 µM (inactive); in the test with SNB-75, 16.7 µM (inactive); with SW-620 it was 18.1 µM (inactive); in the test on U-251, 13.9 µM (inactive).

`COc1ccc(N2C(=O)CSC2c2c[nH]c3ccccc23)cc1` (configuration not stated): the GI50 in the test with EKVX is > 100 µM (inactive); in the test on HL-60, 23.6 µM (inactive); in the test with HOP-62, > 100 µM (inactive); with HOP-92 it was 52.7 µM (inactive); with HT-29, 51.1 µM (inactive); with K562, 26.2 µM (inactive). The GI50 in the test on KM12 is 28.4 µM (inactive); in the test on LOX IMVI it was 78.9 µM (inactive); in the test with MOLT-4, 33 µM (inactive); with NCI-H460, 32.4 µM (inactive); in the test with RXF 393 it was > 100 µM (inactive); with SF-295, 44.9 µM (inactive). Besides, the GI50 in the test with SK-MEL-5 was 88.5 µM (inactive); in the test on SK-OV-3, > 100 µM (inactive); in the test on SN12C, > 100 µM (inactive); with SNB-75, > 100 µM (inactive); with SW-620, > 100 µM (inactive); in the test with U-251 it was 88.7 µM (inactive).

Consider `CC(C)(C)[Si](OC1CC(n2cnc3c(N)ncnc32)OC1CO)(c1ccccc1)c1ccccc1` (configuration not stated), for which the GI50 was 18.4 µM (inactive) in the test on EKVX; 41.4 µM (inactive) in the test with HL-60; 22.5 µM (inactive) in the test on HOP-62; 20.2 µM (inactive) with HOP-92; 16.1 µM (inactive) in the test on HT-29; 17.1 µM (inactive) in the test with K562. The GI50 in the test with KM12 is 19.8 µM (inactive); in the test with LOX IMVI it was 17.7 µM (inactive); with MOLT-4 it was 20.7 µM (inactive); in the test on NCI-H226, 12.4 µM (inactive); in the test on NCI-H460, 16.3 µM (inactive); in the test on RXF 393, 13.4 µM (inactive). The GI50 is 15 µM (inactive) with SF-295; 20.2 µM (inactive) with SF-539; 14.9 µM (inactive) with SK-OV-3; 20.9 µM (inactive) in the test with SN12C; 19 µM (inactive) in the test with SW-620; 17.1 µM (inactive) with U-251.

For `CCOC(=O)NC(=O)c1cn(CCNCCO)c(=O)[nH]c1=O`, the GI50 in the test with EKVX, with HL-60, in the test with HOP-62, in the test on HOP-92, with HT-29 and with K562 was > 100 µM (inactive) throughout. In addition, the GI50 with KM12, in the test with LOX IMVI, in the test on MOLT-4, in the test with NCI-H226, in the test with NCI-H460 and in the test on SF-295 was > 100 µM (inactive) each time. The GI50 with SF-539 was > 100 µM (inactive); in the test on SK-MEL-5, > 100 µM (inactive); in the test with SK-OV-3, > 100 µM (inactive); in the test on SN12C, > 100 µM (inactive); in the test on SNB-75, 3.36 µM (inactive); with SW-620, > 100 µM (inactive). Besides, the GI50 with U-251 was > 100 µM (inactive).
